From patent publication US8513229B2, “4-Azetidinyl-1-phenyl-cyclohexane antagonists of CCR2” (Janssen Pharmaceutica NV, priority 2009, dated 2013) come the findings set out here.

Molecules are shown by their SMILES.

The assay concerns the target T1, CCR2 (Homo sapiens, UniProt P41597).
T1 construct: host or cells: THP-1 human monocytic cells
T1 sequence (P41597 1-360 isoform P41597-2): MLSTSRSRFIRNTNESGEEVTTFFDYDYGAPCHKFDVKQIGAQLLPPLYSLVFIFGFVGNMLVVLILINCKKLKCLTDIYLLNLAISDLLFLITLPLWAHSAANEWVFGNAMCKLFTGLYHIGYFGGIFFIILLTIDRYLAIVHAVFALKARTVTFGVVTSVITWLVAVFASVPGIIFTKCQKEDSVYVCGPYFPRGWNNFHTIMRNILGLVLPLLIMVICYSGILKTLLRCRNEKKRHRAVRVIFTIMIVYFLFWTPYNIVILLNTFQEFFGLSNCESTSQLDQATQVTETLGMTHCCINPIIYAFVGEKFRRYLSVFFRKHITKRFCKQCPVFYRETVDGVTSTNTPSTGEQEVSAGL
The assay can be described thus: MCP-1 Receptor Binding Assay in THP-1 Cells. To be noted: 0.5 nM 125I labeled MCP-1, 2 hours at 30° C., read-out: Inhibition of MCP-1 Binding IC50 CCR2 Binding. How it is done:
MCP-1 Receptor Binding Assay in THP-1 Cells
Human monocytic cell line THP-1 cells were obtained from American Type Culture Collection (Manassas, Va., USA). […] The cell density was maintained […].
1 μM cold MCP-1 was used for nonspecific binding.
As a reminder, the IC50 is the concentration at which inhibition is half-maximal. As for `O=C(O)Cc1ccc(C2CCC(N3CC(NC(=O)CNC(=O)c4cccc(C(F)(F)F)c4)C3)CC2)cc1` (centres unmarked) [Example 25, [4-(4-{3-[2-(3-Trifluoromethyl-benzoylamino)-acetylamino]-azetidin-1-yl}-cyclohexyl)-phenyl]-acetic acid], the IC50 came out at 320 nM.
Then `NC(=O)Cc1ccc(C2CCC(N3CC(NC(=O)CNC(=O)c4cccc(C(F)(F)F)c4)C3)CC2)cc1` (centres unmarked) [Example 26, N-({1-[4-(4-Carbamoylmethyl-phenyl)-cyclohexyl]-azetidin-3-ylcarbamoyl}-methyl)-3-trifluoromethyl-benzamide], with 70 nM; and `N#Cc1ccc(C2CCC(N3CC(NC(=O)CNC(=O)c4cccc(C(F)(F)F)c4)C3)CC2)cc1` (centres unmarked) [Example 27, N-({1-[4-(4-Cyano-phenyl)-cyclohexyl]-azetidin-3-ylcarbamoyl}-methyl)-3-trifluoromethyl-benzamide], with 86 nM.
Under `O=C(CNC(=O)c1cccc(C(F)(F)F)c1)NC1CN(C2CCC(c3ccc(-c4nn[nH]n4)cc3)CC2)C1` (centres unmarked) [Example 28, N-[(1-{4-[4-(2H-Tetrazol-5-yl)-phenyl]-cyclohexyl}-azetidin-3-ylcarbamoyl)-methyl]-3-trifluoromethyl-benzamide] stands 200 nM; under `CS(=O)(=O)c1ccc(C2CCC(N3CC(NC(=O)CNC(=O)c4cccc(C(F)(F)F)c4)C3)CC2)cc1` (centres unmarked) [Example 29, N-({1-[4-(4-Methanesulfonyl-phenyl)-cyclohexyl]-azetidin-3-ylcarbamoyl}-methyl)-3-trifluoromethyl-benzamide], 280 nM.
Consider `CN(C)CCOc1ccc(C2CCC(N3CC(NC(=O)CNC(=O)c4cccc(C(F)(F)F)c4)C3)CC2)cc1` (centres unmarked) [Example 41, N-[(1-{4-[4-(2-Dimethylamino-ethoxy)-phenyl]-cyclohexyl}-azetidin-3-ylcarbamoyl)-methyl]-3-trifluoromethyl-benzamide], for which the IC50 came to 160 nM.
Regarding `O=C(CNC(=O)c1cccc(C(F)(F)F)c1)NC1CN(C2CCC(O)(c3ccc(O)cc3)CC2)C1` (centres unmarked) [Example 42, N-({1-[4-Hydroxy-4-(4-hydroxy-phenyl)-cyclohexyl]-azetidin-3-ylcarbamoyl}-methyl)-3-trifluoromethyl-benzamide], the IC50 is 130 nM.
For `COC(=O)COc1ccc(C2CCC(N3CC(NC(=O)CNC(=O)c4cccc(C(F)(F)F)c4)C3)CC2)cc1` (centres unmarked) [Example 43], the IC50 is 38 nM.
Consider `O=C(O)COc1ccc(C2CCC(N3CC(NC(=O)CNC(=O)c4cccc(C(F)(F)F)c4)C3)CC2)cc1` (centres unmarked) [Example 44], for which the IC50 worked out at 124 nM.
Consider `O=C(CNC(=O)c1cccc(C(F)(F)F)c1)NC1CN(C2CCC(O)(c3ccc(C(=O)O)cc3)CC2)C1` (centres unmarked) [Example 45, 4-(1-Hydroxy-4-{3-[2-(3-trifluoromethyl-benzoylamino)-acetylamino]-azetidin-1-yl}-cyclohexyl)-benzoic acid], for which the IC50 amounted to 6900 nM.
On to `O=C(CNC(=O)c1cccc(C(F)(F)F)c1)NC1CN(C2CCC(O)(c3cccc(-c4nnn[nH]4)c3)CC2)C1` (centres unmarked) [Example 49, N-[(1-{4-Hydroxy-4-[3-(1H-tetrazol-5-yl)-phenyl]-cyclohexyl}-azetidin-3-ylcarbamoyl)-methyl]-3-trifluoromethyl-benzamide], for which the IC50 worked out at 810 nM.
`CC(C)(C)OC(=O)Nc1ccc(C2(O)CCC(N3CC(NC(=O)CNC(=O)c4cccc(C(F)(F)F)c4)C3)CC2)cc1` (centres unmarked) [Example 50, [4-(1-Hydroxy-4-{3-[2-(3-trifluoromethyl-benzoylamino)-acetylamino]-azetidin-1-yl}-cyclohexyl)-phenyl]-carbamic acid tert-butyl ester]: the IC50 worked out at 230 nM.
Turning to `CCc1cccc(C2(O)CCC(N3CC(NC(=O)CNC(=O)c4cccc(C(F)(F)F)c4)C3)CC2)c1` (centres unmarked) [Example 52, N-({1-[4-(3-Ethyl-phenyl)-4-hydroxy-cyclohexyl]-azetidin-3-ylcarbamoyl}-methyl)-3-trifluoromethyl-benzamide], the IC50 was 160 nM.
Take `O=C(CNC(=O)c1cccc(C(F)(F)F)c1)NC1CN(C2CCC(O)(c3ccc(Cl)cc3)CC2)C1` (centres unmarked) [Example 53, N-({1-[4-(4-Chloro-phenyl)-4-hydroxy-cyclohexyl]-azetidin-3-ylcarbamoyl}-methyl)-3-trifluoromethyl-benzamide]: the IC50 is 240 nM.
In the case of `Cc1ccc(C2(O)CCC(N3CC(NC(=O)CNC(=O)c4cccc(C(F)(F)F)c4)C3)CC2)cc1` (centres unmarked) [Example 59, N-{[1-(4-Hydroxy-4-p-tolyl-cyclohexyl)-azetidin-3-ylcarbamoyl]-methyl}-3-trifluoromethyl-benzamide], the IC50 was found to be 100 nM.
For `Cc1cccc(C2(O)CCC(N3CC(NC(=O)CNC(=O)c4cccc(C(F)(F)F)c4)C3)CC2)c1` (centres unmarked) [Example 60, N-{[1-(4-Hydroxy-4-m-tolyl-cyclohexyl)-azetidin-3-ylcarbamoyl]-methyl}-3-trifluoromethyl-benzamide], the IC50 turned out to be 100 nM.
With `CS(=O)(=O)Nc1cccc(C2(O)CCC(N3CC(NC(=O)CNC(=O)c4cccc(C(F)(F)F)c4)C3)CC2)c1` (centres unmarked) [Example 61, N-({1-[4-Hydroxy-4-(3-methanesulfonylamino-phenyl)-cyclohexyl]-azetidin-3-ylcarbamoyl}-methyl)-3-trifluoromethyl-benzamide], the IC50 came to 130 nM.
In the case of `Cn1c(=O)n(C)c2cc(C3(O)CCC(N4CC(NC(=O)CNC(=O)c5cccc(C(F)(F)F)c5)C4)CC3)ccc21` (centres unmarked) [Example 62, N-({1-[4-(1,3-Dimethyl-2-oxo-2,3-dihydro-1H-benzoimidazol-5-yl)-4-hydroxy-cyclohexyl]-azetidin-3-ylcarbamoyl}-methyl)-3-trifluoromethyl-benzamide], the IC50 is 82 nM.
On to `Cn1c(=O)oc2ccc(C3(O)CCC(N4CC(NC(=O)CNC(=O)c5cccc(C(F)(F)F)c5)C4)CC3)cc21` (centres unmarked) [Example 63a, N-({1-[4-Hydroxy-4-(3-methyl-2-oxo-2,3-dihydro-benzooxazol-5-yl)-cyclohexyl]-azetidin-3-ylcarbamoyl}-methyl)-3-trifluoromethyl-benzamide], for which the half-maximal inhibitory concentration (IC50) stood at 150 nM.
Consider `Cn1cnc2ccc(C3(O)CCC(N4CC(NC(=O)CNC(=O)c5cccc(C(F)(F)F)c5)C4)CC3)cc21` (centres unmarked) [Example 64, N-({1-[4-Hydroxy-4-(3-methyl-3H-benzoimidazol-5-yl)-cyclohexyl]-azetidin-3-ylcarbamoyl}-methyl)-3-trifluoromethyl-benzamide], for which the IC50 was 110 nM.
Consider `O=C(CNC(=O)c1cc(C(F)(F)F)ccc1F)NC1CN(C2CCC(c3ccccc3)CC2)C1` (centres unmarked) [Example 66, 2-Fluoro-N-{[1-(4-phenyl-cyclohexyl)-azetidin-3-ylcarbamoyl]-methyl}-5-trifluoromethyl-benzamide], for which the IC50 stood at 620 nM.
Then `COc1ccc(C(=O)NCC(=O)NC2CN(C3CCC(c4ccccc4)CC3)C2)cc1C(F)(F)F` (centres unmarked) [Example 67, 4-Methoxy-N-{[1-(4-phenyl-cyclohexyl)-azetidin-3-ylcarbamoyl]-methyl}-3-trifluoromethyl-benzamide], with 600 nM.
For `COc1ccc(C(F)(F)F)cc1C(=O)NCC(=O)NC1CN(C2CCC(c3ccccc3)CC2)C1` (centres unmarked) [Example 68, 2-Methoxy-N-{[1-(4-phenyl-cyclohexyl)-azetidin-3-ylcarbamoyl]-methyl}-5-trifluoromethyl-benzamide], the IC50 is 740 nM.
